Measured values published in patent US8247211B2, “Glycopeptide antibiotics” (American Cyanamid Company, priority 2001, dated 2012).
Converted amounts (≈) assume the structure as drawn.

Columns and labels:
Assay in all cases: In vitro antibacterial evaluation: minimum inhibitory concentration (MIC), broth dilution method
Type in all cases: cell-based
Details in all cases: 18 hours at 35° C.
[1] = test system: Staphylococcus sp.
In short: (§1)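 NCCLS M7-A2 broth dilution with Mueller-Hinton II, testing 64-0.06 μg/mL antibiotic against 5×10^5 CFU/mL inocula. Test strains include recent methicillin-, penicillin- or vancomycin-resistant clinical isolates. MIC is the lowest concentration preventing growth.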

[2] = test system: Escherichia coli
In short: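 Susceptibility determined by NCCLS-recommended broth dilution (M7-A2), Muller-Hinton II […]. Concentration span 64-0.06 μg/mL, inoculum 5×10^5 CFU/mL. Isolates include strains resistant to methicillin, penicillin and/or vancomycin.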

[3] = test system: Enterococcus sp.
In short: as §1

[4] = test system: Streptococcus sp.
In short: as §1

[5] = broth dilution, inoculum 5×10^5 CFU/mL

## CC(c1ccccc1)C1NC(=O)CNC(=O)C(CO)NC(=O)C(C(O)C2CNC(=N)N2C2OC(CO)C(O)C(O)C2O)NC(=O)C(C(O)C2CNC(=N)N2)NC(=O)C(Cc2ccc(OC3OC(CO)C(OC4OC(COCC=Cc5ccccc5)C(O)C(O)C4O)C(O)C3O)cc2)NC1=O (stereo not drawn) [Example 242, Cyclo[glycyl-β-methylphenylalanyl-O-[4-O-[6-O-(3-phenylprop-2-en-1-yl)hexopyranosyl]-hexopyranosyl]tyrosyl-3-(2-iminoimidazolidin-4-yl)seryl-3-(3-hexopyranosyl-2-iminoimidazolidin-4-yl)serylseryl]]
[1]; Coagulase Negative Staphylococcus (GC 4547)
  MIC Coagulase Negative Staphylococcus (GC 4547): 8 µg/mL (≈ 5.67 µM)
[1]; Coagulase Negative Staphylococcus (GC 4548)
  MIC Coagulase Negative Staphylococcus (GC 4548): 4 µg/mL (≈ 2.83 µM)
[1]; Coagulase Negative Staphylococcus (GC 4549)
  MIC Coagulase Negative Staphylococcus (GC 4549): 4 µg/mL (≈ 2.83 µM)
[1]; Coagulase Negative Staphylococcus (GC 4551)
  MIC Coagulase Negative Staphylococcus (GC 4551): 16 µg/mL (≈ 11.3 µM)
[1]; Coagulase Negative Staphylococcus (GC 6257)
  MIC Coagulase Negative Staphylococcus (GC 6257): 2 µg/mL (≈ 1.42 µM)
[1]; Staphylococcus aureus (ATCC 29213)
  MIC Staphylococcus aureus (ATCC 29213): 8 µg/mL (≈ 5.67 µM)
[1]; Staphylococcus aureus (GC 1131)
  MIC Staphylococcus aureus (GC 1131): 8 µg/mL (≈ 5.67 µM)
[1]; Staphylococcus aureus (GC 3051)
  MIC Staphylococcus aureus (GC 3051): 8 µg/mL (≈ 5.67 µM)
[1]; Staphylococcus aureus (GC 3053)
  MIC Staphylococcus aureus (GC 3053): 8 µg/mL (≈ 5.67 µM)
[1]; Staphylococcus aureus (GC 4541)
  MIC Staphylococcus aureus (GC 4541): 4 µg/mL (≈ 2.83 µM)
[1]; Staphylococcus aureus (GC 4542)
  MIC Staphylococcus aureus (GC 4542): 4 µg/mL (≈ 2.83 µM)
[1]; Staphylococcus aureus (GC 4544)
  MIC Staphylococcus aureus (GC 4544): 8 µg/mL (≈ 5.67 µM)
[1]; Staphylococcus aureus (GC 4545)
  MIC Staphylococcus aureus (GC 4545): 4 µg/mL (≈ 2.83 µM)
[1]; Staphylococcus aureus-SMITH (GC 4543)
  MIC Staphylococcus aureus-SMITH (GC 4543): 8 µg/mL (≈ 5.67 µM)
[1]; Staphylococcus haemolyticus (GC 4546)
  MIC Staphylococcus haemolyticus (GC 4546): 4 µg/mL (≈ 2.83 µM)
[2]; Escherichia coli (ATCC 25922)
  MIC Escherichia coli (ATCC 25922): >64 µg/mL
[2]; Escherichia coli (GC 4559)
  MIC Escherichia coli (GC 4559): >64 µg/mL
[2]; Escherichia coli (GC 4560)
  MIC Escherichia coli (GC 4560): 2 µg/mL (≈ 1.42 µM)
[3]; Enterococcus avium (GC 4558)
  MIC Enterococcus avium (GC 4558): 16 µg/mL (≈ 11.3 µM)
[3]; Enterococcus faecalis (ATCC 29212)
  MIC Enterococcus faecalis (ATCC 29212): 16 µg/mL (≈ 11.3 µM)
[3]; Enterococcus faecalis (GC 2242)
  MIC Enterococcus faecalis (GC 2242): 16 µg/mL (≈ 11.3 µM)
[3]; Enterococcus faecalis (GC 2691)
  MIC Enterococcus faecalis (GC 2691): 16 µg/mL (≈ 11.3 µM)
[3]; Enterococcus faecalis (GC 3059)
  MIC Enterococcus faecalis (GC 3059): 16 µg/mL (≈ 11.3 µM)
[3]; Enterococcus faecalis (GC 4552)
  MIC Enterococcus faecalis (GC 4552): 16 µg/mL (≈ 11.3 µM)
[3]; Enterococcus faecalis (GC 4553)
  MIC Enterococcus faecalis (GC 4553): 16 µg/mL (≈ 11.3 µM)
[3]; Enterococcus faecalis (GC 4554)
  MIC Enterococcus faecalis (GC 4554): 16 µg/mL (≈ 11.3 µM)
[3]; Enterococcus faecalis (GC 6189)
  MIC Enterococcus faecalis (GC 6189): 16 µg/mL (≈ 11.3 µM)
[3]; Enterococcus faecium (GC 2243)
  MIC Enterococcus faecium (GC 2243): 16 µg/mL (≈ 11.3 µM)
[3]; Enterococcus faecium (GC 4556)
  MIC Enterococcus faecium (GC 4556): 16 µg/mL (≈ 11.3 µM)
[3]; Enterococcus faecium (GC 4557)
  MIC Enterococcus faecium (GC 4557): 8 µg/mL (≈ 5.67 µM)
[3]; [5]
  MIC Enterococcus faecalis (GC 2242): 16 µg/mL (≈ 11.3 µM)
  MIC Enterococcus faecalis (GC 2691): 16 µg/mL (≈ 11.3 µM)
  MIC Enterococcus faecalis (GC 3059): 16 µg/mL (≈ 11.3 µM)
[4]; Streptococcus agalactiae (GC 4564)
  MIC Streptococcus agalactiae (GC 4564): 2 µg/mL (≈ 1.42 µM)
[4]; Streptococcus pneumoniae (ATCC 6301)
  MIC Streptococcus pneumoniae (ATCC 6301): 1 µg/mL (≈ 0.708 µM)
[4]; Streptococcus pneumoniae (GC 1894)
  MIC Streptococcus pneumoniae (GC 1894): 0.5 µg/mL (≈ 0.354 µM)
[4]; Streptococcus pneumoniae (GC 4565)
  MIC Streptococcus pneumoniae (GC 4565): 0.5 µg/mL (≈ 0.354 µM)
[4]; Streptococcus pyogenes (GC 4563)
  MIC Streptococcus pyogenes (GC 4563): 2 µg/mL (≈ 1.42 µM)
[4]; [5]
  MIC Streptococcus agalactiae (GC 4564): 2 µg/mL (≈ 1.42 µM)
  MIC Streptococcus pneumoniae (ATCC 6301): 1 µg/mL (≈ 0.708 µM)
  MIC Streptococcus pneumoniae (GC 1894): 0.5 µg/mL (≈ 0.354 µM)
  MIC Streptococcus pneumoniae (GC 4565): 0.5 µg/mL (≈ 0.354 µM)
  MIC Streptococcus pyogenes (GC 4563): 2 µg/mL (≈ 1.42 µM)
